Test: mn = molality of the nth substance listed, in mol/kg
Conditions: 298.15 K, 101 kPa, Liquid; for speed of sound: Sing-around technique in a fixed-path interferometer; for mass density: Vibrating tube method

O=Cc1ccco1 [2-furaldehyde] + O
Conditions | mass density [kg/m3] | speed of sound [m/s]
m1 = 0.0542 | 998.113 | 1499.1
m1 = 0.0556 | 998.137 | 1499.2
m1 = 0.0607 | 998.217 | 1499.4
m1 = 0.0653 | 998.295 | 1499.6
m1 = 0.0686 | 998.351 | 1499.7
m1 = 0.075 | 998.453 | 1500
m1 = 0.0801 | 998.537 | 1500.2
m1 = 0.089 | 998.69 | 1500.6
m1 = 0.1095 | 999.037 | 1501.4
m1 = 0.1179 | 999.174 | 1501.8
m1 = 0.1332 | 999.425 | 1502.3
m1 = 0.1717 | 1000.07 | 1504
m1 = 0.2053 | 1000.62 | 1505.3
m1 = 0.2309 | 1001.03 | 1506.1
m1 = 0.3092 | 1002.32 | 1508.9
m1 = 0.3436 | 1002.87 | 1510
m1 = 0.4132 | 1003.97 | 1512.3
m1 = 0.5112 | 1005.51 | 1515.2
m1 = 0.5559 | 1006.19 | 1516.5
m1 = 0.6557 | 1007.7 | 1518.7
m1 = 0.8368 | 1010.35 | 1522
m1 = 0.9225 | 1011.55 | 1523.5

OCc1ccco1 [2-hydroxymethylfuran] + O
Conditions | mass density [kg/m3] | speed of sound [m/s]
m1 = 0.0475 | 997.854 | 1498.9
m1 = 0.0537 | 997.937 | 1499.3
m1 = 0.0559 | 997.967 | 1499.4
m1 = 0.0625 | 998.054 | 1499.7
m1 = 0.0688 | 998.143 | 1500
m1 = 0.0781 | 998.269 | 1500.3
m1 = 0.0999 | 998.571 | 1501.3
m1 = 0.1027 | 998.607 | 1501.5
m1 = 0.12 | 998.847 | 1502.2
m1 = 0.1433 | 999.158 | 1503.3
m1 = 0.1651 | 999.552 | 1504.3
m1 = 0.2327 | 1000.39 | 1507.1
m1 = 0.2468 | 1000.58 | 1507.8
m1 = 0.4458 | 1003.25 | 1515.9
m1 = 0.618 | 1005.5 | 1522.3
m1 = 0.8613 | 1008.56 | 1530.4
m1 = 1.054 | 1010.95 | 1535.9
m1 = 1.236 | 1012.93 | 1540.5
m1 = 1.441 | 1015.25 | 1545.5
m1 = 1.656 | 1017.56 | 1550
m1 = 1.835 | 1019.32 | 1554
m1 = 2.062 | 1021.73 | 1559.4
m1 = 2.545 | 1026.13 | 1569.5
m1 = 2.874 | 1028.8 | 1577.2

OCC1CCCO1 (configuration not stated) [2-tetrahydrofurylmethanol] + O
Conditions | mass density [kg/m3] | speed of sound [m/s]
m1 = 0.0115 | 997.245 | 1497.2
m1 = 0.0127 | 997.265 | 1497.4
m1 = 0.0141 | 997.289 | 1497.6
m1 = 0.0149 | 997.301 | 1497.7
m1 = 0.0183 | 997.356 | 1498.1
m1 = 0.0193 | 997.373 | 1498.2
m1 = 0.0223 | 997.421 | 1498.4
m1 = 0.0281 | 997.511 | 1498.5
m1 = 0.0286 | 997.518 | 1498.5
m1 = 0.0337 | 997.596 | 1498.7
m1 = 0.0441 | 997.835 | 1499.3
m1 = 0.0462 | 997.862 | 1499.5
m1 = 0.0496 | 997.893 | 1499.6
m1 = 0.0584 | 998.028 | 1500.3
m1 = 0.0686 | 998.155 | 1500.9
m1 = 0.0731 | 998.209 | 1501.1
m1 = 0.0948 | 998.467 | 1502.4
m1 = 0.1082 | 998.66 | 1503.2
m1 = 0.1478 | 999.071 | 1505.6
m1 = 0.2077 | 999.663 | 1509
m1 = 0.2552 | 1000.11 | 1511.8
m1 = 0.35 | 1000.98 | 1517.1
m1 = 0.4904 | 1002.2 | 1524.9
m1 = 0.678 | 1003.77 | 1534.7
m1 = 1.16 | 1007.55 | 1557.2
m1 = 1.996 | 1013.36 | 1589.1
m1 = 2.959 | 1020.27 | 1614.9
m1 = 3.175 | 1021.74 | 1620.8
m1 = 3.559 | 1024.37 | 1630.1
m1 = 5.556 | 1036.45 | 1672.3

Cc1ccc(C=O)o1 [5-methylfurfural] + O
Conditions | mass density [kg/m3] | speed of sound [m/s]
m1 = 0.0067 | 997.297 | 1497
m1 = 0.0069 | 997.3 | 1497
m1 = 0.0081 | 997.319 | 1497.1
m1 = 0.0083 | 997.323 | 1497.2
m1 = 0.0084 | 997.325 | 1497.2
m1 = 0.0098 | 997.344 | 1497.2
m1 = 0.0103 | 997.35 | 1497.2
m1 = 0.0109 | 997.355 | 1497.3
m1 = 0.0122 | 997.373 | 1497.3
m1 = 0.0137 | 997.397 | 1497.4
m1 = 0.016 | 997.425 | 1497.6
m1 = 0.0179 | 997.454 | 1497.7
m1 = 0.0223 | 997.516 | 1497.9
m1 = 0.0257 | 997.563 | 1498.1
m1 = 0.0292 | 997.613 | 1498.3
m1 = 0.0462 | 997.848 | 1499.2
m1 = 0.0557 | 997.966 | 1499.6
m1 = 0.0608 | 998.055 | 1500
m1 = 0.0825 | 998.35 | 1501.1
m1 = 0.1136 | 998.767 | 1503
m1 = 0.1363 | 998.986 | 1503.8
m1 = 0.1454 | 999.221 | 1504.2
m1 = 0.1666 | 999.516 | 1505.2
m1 = 0.204 | 1000.01 | 1506.9
m1 = 0.2877 | 1001.14 | 1511

Source: the NIST ThermoML archive (doi:10.1016/j.jct.2013.06.020)
